Results: patent publication US11319299B2, “Substituted carboxamides as inhibitors of WDR5 protein-protein binding” (PROPELLON THERAPEUTICS INC., priority 2016, dated 2022)

How the values were obtained:
[1] = test system: H3K4 dimethylation (H3K4me2) in T24 cells; assay: Detection of in-cell H3K4 dimethylation (AlphaLisa); type: cell-based; conditions: Homo sapiens, T-24, 120 h, five days, read-out: In vitro whole cell potency in T24 cells, H3K4Me2 (IC50)
Procedure: (iii) Detection of In-Cell H3K4 Dimethylation
T24 cells were seeded into a 96-well plate at 400 cells/well in 150 μl medium (McCoy 5A containing 10% FBS, 100 μg/ml Normocin, and 50 μg/ml Gentamycin, Invitrogen). A HP D300 digital dispenser was used to dose cells with DMSO or test compounds across a 10-point range of concentrations (high dose of 10 μM), and cultures were grown in a humidified 5% CO2 incubator at 37° C. After five days, plates were removed from incubator, media was aspirated, and the cells washed in PBS. Cell lysis, histone extraction, and detection of H3K4 dimethylation (H3K4me2) were performed using an AlphaLisa kit according to the manufacturer's instructions (Perkin Elmer). Signal was measured using an Envision plate reader.

MV4-11 cells = assay: Cell proliferation assay (ATPlite); type: cell-based; conditions: Homo sapiens, MV4-11, 120 h; MV-411 cells, five days; read-out: In vitro whole cell potency in MV-411 cells, (IC50)
Procedure, shortened: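 MV4-11 cells at 1,000 cells/well in Alpha-MEM with 10% FBS were dosed over a 10-point range (top 10 μM). Cells were grown 5 days at 37° C, 5% CO2. Viability was read as ATPlite luminescence.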

WDR5 [2] = biological target: T1, WDR5 (Homo sapiens (Human), UniProt P61964); assay: Surface Plasmon Resonance (SPR) assay, KD and residence time; type: binding; conditions: surface plasmon resonance (SPR); read-out: WDR5 binding affinity (KD)
WDR5 [3] = biological target: T1, WDR5; conditions: previous studies, J. Med. Chem. 2010, 53: 5179-5185; J. Am. Chem. Soc. 2013, 135: 669-682; read-out: Ki, binding affinity to WDR5; cited from earlier work

CN1CCN(c2cc(F)c(-c3cnc(N4CCOCC4)nc3)cc2NC(=O)c2c[nH]c(=O)cc2C(F)(F)F)CC1 [Example 3, N-(4-fluoro-2-(4-methylpiperazin-1-yl)-5-(2-morpholinopyrimidin-5-yl)phenyl)-6-oxo-4-(trifluoromethyl)-1,6-dihydropyridine-3-carboxamide]
IC50 [1]: 0.882 µM
IC50 (MV4-11 cells): 0.749 µM

C[C@@H]1CN(c2cc(F)c(-c3cnc(N4CCOCC4)nc3)cc2NC(=O)c2c[nH]c(=O)cc2C(F)(F)F)CCN1C [Example 6, (R)—N-(2-(3,4-dimethylpiperazin-1-yl)-4-fluoro-5-(2-morpholinopyrimidin-5-yl)phenyl)-6-oxo-4-(trifluoromethyl)-1,6-dihydropyridine-3-carboxamide]
IC50 [1]: 1.07 µM
IC50 (MV4-11 cells): 0.828 µM

C[C@H]1CN(c2cc(F)c(-c3cnc(N4CCOCC4)nc3)cc2NC(=O)c2c[nH]c(=O)cc2C(F)(F)F)CCN1C [Example 7, (S)—N-(2-(3,4-dimethylpiperazin-1-yl)-4-fluoro-5-(2-morpholinopyrimidin-5-yl)phenyl)-6-oxo-4-(trifluoromethyl)-1,6-dihydropyridine-3-carboxamide]
IC50 [1]: 0.166 µM
IC50 (MV4-11 cells): 0.051 µM

C[C@@H]1CN(c2cc(F)c(-c3cnc(N4CCOCC4)nc3)cc2NC(=O)c2c[nH]c(=O)cc2C(F)(F)F)C[C@H](C)N1C [Example 8, N-(4-fluoro-5-(2-morpholinopyrimidin-5-yl)-2-((3R,5S)-3,4,5-trimethylpiperazin-1-yl)phenyl)-6-oxo-4-(trifluoromethyl)-1,6-dihydropyridine-3-carboxamide]
IC50 [1]: 0.144 µM

C[C@@H]1CN(c2cc(F)c(-c3ccc(OCC4CC4)nc3)cc2NC(=O)c2c[nH]c(=O)cc2C(F)(F)F)C[C@H](C)N1C [Example 39, N-[5-[6-(cyclopropylmethoxy)pyridin-3-yl]-4-fluoro-2-[(3S,5R)-3,4,5-trimethylpiperazin-1-yl]phenyl]-6-oxo-4-(trifluoromethyl)-1H-pyridine-3-carboxamide]
IC50 [1]: 0.626 µM
IC50 (MV4-11 cells): 0.213 µM

C[C@@H]1CN(c2cc(F)c(-c3csc(C(=O)N(C)CC4CC4)n3)cc2NC(=O)c2c[nH]c(=O)cc2C(F)(F)F)C[C@H](C)N1C [Example 532, N-(cyclopropylmethyl)-4-[2-fluoro-5-[[6-oxo-4-(trifluoromethyl)-1H-pyridine-3-carbonyl]amino]-4-[(3R,5S)-3,4,5-trimethylpiperazin-1-yl]phenyl]-N-methyl-1,3-thiazole-2-carboxamide]
Kd (WDR5 [2]): 0.000694 µM
IC50 (MV4-11 cells): 0.022 µM

CC(C)OC(=O)N1CC=C(c2cc(NC(=O)c3c[nH]c(=O)cc3C(F)(F)F)c(N3C[C@@H](C)N(C)[C@@H](C)C3)cc2F)C1 [Example 600, Propan-2-yl 3-[2-fluoro-5-[[6-oxo-4-(trifluoromethyl)-1H-pyridine-3-carbonyl]amino]-4-[(3R,5S)-3,4,5-trimethylpiperazin-1-yl]phenyl]-2,5-dihydropyrrole-1-carboxylate]
Kd (WDR5 [2]): 0.000779 µM
IC50 (MV4-11 cells): 0.052 µM

Ac-A-R-A-NH2
Ki (WDR5 [3]): 120 µM
